Assay results: ChEMBL document CHEMBL2440076, “New triarylpyrazoles as broad-spectrum anticancer agents: design, synthesis, and biological evaluation” (Eur J Med Chem, 2013)

Columns and labels:
Type in all cases: functional
[1] = system: NCI-H522; assay: Growth inhibition of human NCI-H522 cells assessed as cell growth at 5X10'-5 M after 48 hrs by sulforhodamine B assay; details: NCI-H522, 48 h, read-out: Activity
[2] = system: HCT-15; assay: Growth inhibition of human HCT15 cells assessed as cell growth at 5X10'-8 M after 48 hrs by sulforhodamine B assay; details: HCT-15, 48 h, read-out: Activity
[3] = system: U-251; assay: Growth inhibition of human U251 cells assessed as cell growth at 5X10'-7 M after 48 hrs by sulforhodamine B assay; details: U-251, 48 h, read-out: Activity
[4] = system: ACHN; assay: Growth inhibition of human ACHN cells assessed as cell growth at 5X10'-8 M after 48 hrs by sulforhodamine B assay; details: read-out: Activity
[5] = system: MOLT-4; assay: Growth inhibition of human MOLT4 cells assessed as cell growth at 5X10'-6 M after 48 hrs by sulforhodamine B assay; details: MOLT-4, 48 h, read-out: Activity
[6] = system: RXF 393; assay: Growth inhibition of human RXF393 cells assessed as cell growth at 5X10'-9 M after 48 hrs by sulforhodamine B assay; details: RXF 393, 48 h, read-out: Activity
[7] = system: A549; assay: Growth inhibition of human A549/ATCC cells assessed as cell growth at 5X10'-5 M after 48 hrs by sulforhodamine B assay; details: A549, 48 h, read-out: Activity
[8] = system: HCT-116; assay: Growth inhibition of human HCT116 cells assessed as cell growth at 5X10'-8 M after 48 hrs by sulforhodamine B assay; details: HCT-116, 48 h, read-out: Activity
[9] = system: SNB-75; assay: Growth inhibition of human SNB75 cells assessed as cell growth at 5X10'-7 M after 48 hrs by sulforhodamine B assay; details: SNB-75, 48 h, read-out: Activity
[10] = system: SN12C; assay: Growth inhibition of human SN12C cells assessed as cell growth at 5X10'-7 M after 48 hrs by sulforhodamine B assay; details: read-out: Activity
[11] = system: MDA-MB-435; assay: Growth inhibition of human MDA-MB-435 cells assessed as cell growth at 5X10'-9 M after 48 hrs by sulforhodamine B assay; details: MDA-MB-435, 48 h, read-out: Activity
[12] = system: SK-MEL-28; assay: Growth inhibition of human SK-MEL-28 cells assessed as cell growth at 5X10'-6 M after 48 hrs by sulforhodamine B assay; details: SK-MEL-28, 48 h, read-out: Activity
[13] = system: HCT-15; assay: Growth inhibition of human HCT15 cells assessed as cell growth at 5X10'-9 M after 48 hrs by sulforhodamine B assay; details: HCT-15, 48 h, read-out: Activity
[14] = system: SK-MEL-2; assay: Growth inhibition of human SK-MEL-2 cells assessed as cell growth at 5X10'-5 M after 48 hrs by sulforhodamine B assay; details: SK-MEL-2, 48 h, read-out: Activity
[15] = system: MDA-MB-231; assay: Growth inhibition of human MDA-MB-231 cells assessed as cell growth at 5X10'-6 M after 48 hrs by sulforhodamine B assay; details: MDA-MB-231, 48 h, read-out: Activity
[16] = system: LOX IMVI; assay: Growth inhibition of human LOXIMVI cells assessed as cell growth at 5X10'-5 M after 48 hrs by sulforhodamine B assay; details: read-out: Activity
[17] = system: T47D; assay: Growth inhibition of human T47D cells assessed as cell growth at 5X10'-9 M after 48 hrs by sulforhodamine B assay; details: read-out: Activity
[18] = system: NCI-H460; assay: Growth inhibition of human NCI-H460 cells assessed as cell growth at 5X10'-9 M after 48 hrs by sulforhodamine B assay; details: NCI-H460, 48 h, read-out: Activity
[19] = system: OVCAR-4; assay: Growth inhibition of human OVCAR4 cells assessed as cell growth at 5X10'-7 M after 48 hrs by sulforhodamine B assay; details: OVCAR-4, 48 h, read-out: Activity
[20] = system: NCI-H522; assay: Growth inhibition of human NCI-H522 cells assessed as cell growth at 5X10'-8 M after 48 hrs by sulforhodamine B assay; details: NCI-H522, 48 h, read-out: Activity
[21] = system: SK-MEL-2; assay: Growth inhibition of human SK-MEL-2 cells assessed as cell growth at 5X10'-6 M after 48 hrs by sulforhodamine B assay; details: SK-MEL-2, 48 h, read-out: Activity
[22] = system: SK-MEL-5; assay: Growth inhibition of human SK-MEL-5 cells assessed as cell growth at 5X10'-7 M after 48 hrs by sulforhodamine B assay; details: SK-MEL-5, 48 h, read-out: Activity
[23] = system: SR; assay: Growth inhibition of human SR cells assessed as cell growth at 5X10'-6 M after 48 hrs by sulforhodamine B assay; details: read-out: Activity
[24] = system: A549; assay: Growth inhibition of human A549/ATCC cells assessed as cell growth at 5X10'-6 M after 48 hrs by sulforhodamine B assay; details: A549, 48 h, read-out: Activity
[25] = system: BT-549; assay: Growth inhibition of human BT549 cells assessed as cell growth at 5X10'-5 M after 48 hrs by sulforhodamine B assay; details: BT-549, 48 h, read-out: Activity
[26] = system: M14; assay: Growth inhibition of human M14 cells assessed as cell growth at 5X10'-9 M after 48 hrs by sulforhodamine B assay; details: M14, 48 h, read-out: Activity
[27] = system: DU-145; assay: Growth inhibition of human DU145 cells assessed as cell growth at 5X10'-7 M after 48 hrs by sulforhodamine B assay; details: DU-145, 48 h, read-out: Activity
[28] = system: SN12C; assay: Growth inhibition of human SN12C cells assessed as cell growth at 5X10'-6 M after 48 hrs by sulforhodamine B assay; details: read-out: Activity
[29] = system: SNB-75; assay: Growth inhibition of human SNB75 cells assessed as cell growth at 5X10'-5 M after 48 hrs by sulforhodamine B assay; details: SNB-75, 48 h, read-out: Activity
[30] = system: DU-145; assay: Growth inhibition of human DU145 cells assessed as cell growth at 5X10'-9 M after 48 hrs by sulforhodamine B assay; details: DU-145, 48 h, read-out: Activity
[31] = system: OVCAR-3; assay: Growth inhibition of human OVCAR3 cells assessed as cell growth at 5X10'-9 M after 48 hrs by sulforhodamine B assay; details: OVCAR-3, 48 h, read-out: Activity
[32] = system: OVCAR-5; assay: Growth inhibition of human OVCAR5 cells assessed as cell growth at 5X10'-5 M after 48 hrs by sulforhodamine B assay; details: OVCAR-5, 48 h, read-out: Activity
[33] = system: OVCAR-4; assay: Growth inhibition of human OVCAR4 cells assessed as cell growth at 5X10'-9 M after 48 hrs by sulforhodamine B assay; details: OVCAR-4, 48 h, read-out: Activity
[34] = system: NCI-H23; assay: Growth inhibition of human NCI-H23 cells assessed as cell growth at 5X10'-7 M after 48 hrs by sulforhodamine B assay; details: NCI-H23, 48 h, read-out: Activity
[35] = system: SN12C; assay: Growth inhibition of human SN12C cells assessed as cell growth at 5X10'-9 M after 48 hrs by sulforhodamine B assay; details: read-out: Activity
[36] = system: HOP-62; assay: Growth inhibition of human HOP62 cells assessed as cell growth at 5X10'-8 M after 48 hrs by sulforhodamine B assay; details: HOP-62, 48 h, read-out: Activity
[37] = system: HL-60(TB); assay: Growth inhibition of human HL-60(TB) cells assessed as cell growth at 5X10'-6 M after 48 hrs by sulforhodamine B assay; details: HL-60, 48 h, read-out: Activity

SMILES: COc1cc(-c2nn(-c3cccc(NC(=O)Nc4cccc(C(F)(F)F)c4)c3)cc2-c2ccncc2)ccc1Cl
- growth at 50 µM [1]: -41%
- growth at 0.05 µM [2]: 94%
- growth at 0.5 µM [3]: 67%
- growth at 0.05 µM [4]: 97%
- growth at 5 µM [5]: -14%
- growth at 0.005 µM [6]: 100%
- growth at 50 µM [7]: 1%
- growth at 0.05 µM [8]: 99%
- growth at 0.5 µM [9]: 81%
- growth at 0.5 µM [10]: 80%
- growth at 0.005 µM [11]: 95%
- growth at 5 µM [12]: -18%
- growth at 0.005 µM [13]: 100%
- growth at 50 µM [14]: -85%
- growth at 5 µM [15]: -35%
- growth at 50 µM [16]: -86%
- growth at 0.005 µM [17]: 95%
- growth at 0.005 µM [18]: 100%
- growth at 0.5 µM [19]: 73%
- growth at 0.05 µM [20]: 91%
- growth at 5 µM [21]: -67%
- growth at 0.5 µM [22]: 78%
- growth at 5 µM [23]: -24%
- growth at 5 µM [24]: 3%
- growth at 50 µM [25]: -26%
- growth at 0.005 µM [26]: 96%
- growth at 0.5 µM [27]: 90%
- growth at 5 µM [28]: 12%
- growth at 50 µM [29]: -30%
- growth at 0.005 µM [30]: 105%
- growth at 0.005 µM [31]: 108%
- growth at 50 µM [32]: -43%
- growth at 0.005 µM [33]: 99%
- growth at 0.5 µM [34]: 90%
- growth at 0.005 µM [35]: 97%
- growth at 0.05 µM [36]: 95%
- growth at 5 µM [37]: 4%

SMILES: COc1cc(-c2nn(-c3cccc(NC(=O)Nc4cc(C(F)(F)F)cc(C(F)(F)F)c4)c3)cc2-c2ccncc2)ccc1Cl
- growth at 50 µM [1]: -65%
- growth at 0.05 µM [2]: 97%
- growth at 0.5 µM [3]: 60%
- growth at 0.05 µM [4]: 100%
- growth at 5 µM [5]: -4%
- growth at 0.005 µM [6]: 98%
- growth at 50 µM [7]: -65%
- growth at 0.05 µM [8]: 106%
- growth at 0.5 µM [9]: 81%
- growth at 0.5 µM [10]: 75%
- growth at 0.005 µM [11]: 98%
- growth at 5 µM [12]: -78%
- growth at 0.005 µM [13]: 97%
- growth at 50 µM [14]: -84%
- growth at 5 µM [15]: -84%
- growth at 50 µM [16]: -86%
- growth at 0.005 µM [17]: 101%
- growth at 0.005 µM [18]: 99%
- growth at 0.5 µM [19]: 73%
- growth at 0.05 µM [20]: 103%
- growth at 5 µM [21]: -73%
- growth at 0.5 µM [22]: 74%
- growth at 5 µM [23]: -9%
- growth at 5 µM [24]: -31%
- growth at 50 µM [25]: -57%
- growth at 0.005 µM [26]: 105%
- growth at 0.5 µM [27]: 86%
- growth at 5 µM [28]: -16%
- growth at 50 µM [29]: -62%
- growth at 0.005 µM [30]: 106%
- growth at 0.005 µM [31]: 114%
- growth at 50 µM [32]: -72%
- growth at 0.005 µM [33]: 95%
- growth at 0.5 µM [34]: 85%
- growth at 0.005 µM [35]: 96%
- growth at 0.05 µM [36]: 95%
- growth at 5 µM [37]: 8%
